# Literature values, collected in patent US20030198597A1, “Novel macrocyclic activatible magnetic resonance imaging contrast agents” (priority 2002, published 2003).
# Conditions: thermodynamic stability of the Gd3+ chelate complex; background statement
row,"stability constant (K) / formation constant, logK",SMILES
1,28.5,O=C([O-])CN1CCN(CC(=O)[O-])CCN(CC(=O)[O-])CCN(CC(=O)[O-])CC1.[Gd+3] [Gd-DOTA]
2,22.4,O=C([O-])CN(CCN(CC(=O)[O-])CC(=O)[O-])CCN(CC(=O)[O-])CC(=O)[O-].[Gd+3] [Gd(DTPA)^2−]
